Laboratory results from the supplement of paper PMC10307832.

Experiments:
Experiment in all cases: relative viability (nuclei count vs DMSO), 5 days (fraction); higher = more cells survive
201T = tested on: 201T
Method in brief: (§1)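 Each reported value is a median over duplicate plates. It expresses relative viability: treated-well nuclei count divided by vehicle-well nuclei count. Lung cancer cell lines in 1536-well plates were dosed by pin tool a day after seeding, alone with one drug or with a fixed anchor-drug dose plus five library-drug doses (not always all listed) in √10 steps, and nuclei were counted after 5 days.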

ABC-1 = tested on: ABC-1
Method in brief: as §1

BEN = tested on: BEN
Method in brief: as §1

CAL-12T = tested on: CAL-12T
Method in brief: as §1

COR-L 105 = tested on: COR-L 105
Method in brief: as §1

EKVX = tested on: EKVX
Method in brief: as §1

HARA = tested on: HARA
Method in brief: as §1

HCC-366 = tested on: HCC-366
Method in brief: as §1

LK-2 = tested on: LK-2
Method in brief: as §1

LOU-NH91 = tested on: LOU-NH91
Method in brief: as §1

NCI-H1437 = tested on: NCI-H1437
Method in brief: as §1

NCI-H1666 = tested on: NCI-H1666
Method in brief: as §1

NCI-H2009 = tested on: NCI-H2009
Method in brief: as §1

NCI-H2170 = tested on: NCI-H2170
Method in brief: as §1

NCI-H3122 = tested on: NCI-H3122
Method in brief: as §1

NCI-H441 = tested on: NCI-H441
Method in brief: as §1

NCI-H460 = tested on: NCI-H460
Method in brief: as §1

NCI-H661 = tested on: NCI-H661
Method in brief: as §1

NCI-H727 = tested on: NCI-H727
Method in brief: as §1

PC-14 = tested on: PC-14
Method in brief: as §1

With `CC(=O)O[C@@]12CO[C@@H]1C[C@H](O)[C@@]1(C)C(=O)[C@H](O)C3=C(C)[C@@H](OC(=O)[C@H](O)[C@@H](NC(=O)OC(C)(C)C)c4ccccc4)C[C@@](O)([C@@H](OC(=O)c4ccccc4)[C@H]21)C3(C)C` [Docetaxel] + Cc1nc(NC(=O)N2CCC[C@H]2C(N)=O)sc1-c1ccnc(C(C)(C)C(F)(F)F)c1 [Alpelisib] (partner 2 µM) the relative viability (201T; first compound 0.0002 µM) was 1.01, the relative viability (201T; first compound 0.000632 µM) was 1.06 and the relative viability (201T; first compound 0.002 µM) was 0.878. It also gave a relative viability (201T; first compound 0.006325 µM) of 0.555, a relative viability (201T; first compound 0.02 µM) of 0.366 and a relative viability (ABC-1; first compound 0.0002 µM) of 0.826. The relative viability (ABC-1; first compound 0.000632 µM) was 1.07, the relative viability (ABC-1; first compound 0.002 µM) was 0.493 and the relative viability (ABC-1; first compound 0.006325 µM) was 0.464. For the same molecule, the relative viability (ABC-1; first compound 0.02 µM) was 0.337, the relative viability (BEN; first compound 0.0002 µM) was 0.875 and the relative viability (BEN; first compound 0.000632 µM) was 0.897. For the same molecule, the relative viability (BEN; first compound 0.002 µM) was 0.505, the relative viability (BEN; first compound 0.006325 µM) was 0.261 and the relative viability (BEN; first compound 0.02 µM) was 0.19. For the same molecule, the relative viability (CAL-12T; first compound 0.0002 µM) was 1.06, the relative viability (CAL-12T; first compound 0.000632 µM) was 0.699 and the relative viability (CAL-12T; first compound 0.002 µM) was 0.201. It also gave a relative viability (CAL-12T; first compound 0.02 µM) of 0.154, a relative viability (COR-L 105; first compound 0.0002 µM) of 0.828 and a relative viability (COR-L 105; first compound 0.000632 µM) of 0.952. The relative viability (COR-L 105; first compound 0.002 µM) was 0.475, the relative viability (COR-L 105; first compound 0.006325 µM) was 0.522 and the relative viability (COR-L 105; first compound 0.02 µM) was 0.306. It also gave a relative viability (EKVX; first compound 0.0002 µM) of 0.884, a relative viability (EKVX; first compound 0.000632 µM) of 0.853 and a relative viability (EKVX; first compound 0.002 µM) of 0.435. It also gave a relative viability (EKVX; first compound 0.006325 µM) of 0.25, a relative viability (EKVX; first compound 0.02 µM) of 0.146 and a relative viability (HARA; first compound 0.0002 µM) of 0.778. It also gave a relative viability (HARA; first compound 0.000632 µM) of 0.525, a relative viability (HARA; first compound 0.002 µM) of 0.282 and a relative viability (HARA; first compound 0.006325 µM) of 0.114. It also gave a relative viability (HARA; first compound 0.02 µM) of 0.0727, a relative viability (HCC-366; first compound 0.0002 µM) of 0.331 and a relative viability (HCC-366; first compound 0.000632 µM) of 0.311. It also gave a relative viability (HCC-366; first compound 0.002 µM) of 0.0519, a relative viability (HCC-366; first compound 0.006325 µM) of 0.0149 and a relative viability (HCC-366; first compound 0.02 µM) of 0.0109. It also gave a relative viability (LK-2; first compound 0.0002 µM) of 1.03, a relative viability (LK-2; first compound 0.000632 µM) of 0.685 and a relative viability (LK-2; first compound 0.002 µM) of 0.262. It also gave a relative viability (LK-2; first compound 0.006325 µM) of 0.244, a relative viability (LK-2; first compound 0.02 µM) of 0.231 and a relative viability (LOU-NH91; first compound 0.0002 µM) of 0.73. The relative viability (LOU-NH91; first compound 0.000632 µM) was 0.737, the relative viability (LOU-NH91; first compound 0.002 µM) was 0.565 and the relative viability (LOU-NH91; first compound 0.006325 µM) was 0.394. The relative viability (LOU-NH91; first compound 0.02 µM) was 0.368, the relative viability (NCI-H1437; first compound 0.0002 µM) was 0.888 and the relative viability (NCI-H1437; first compound 0.000632 µM) was 0.759. The relative viability (NCI-H1437; first compound 0.002 µM) was 0.156, the relative viability (NCI-H1437; first compound 0.006325 µM) was 0.124 and the relative viability (NCI-H1437; first compound 0.02 µM) was 0.0738. The relative viability (NCI-H1666; first compound 0.0002 µM) was 0.803, the relative viability (NCI-H1666; first compound 0.000632 µM) was 0.406 and the relative viability (NCI-H1666; first compound 0.002 µM) was 0.352. It also gave a relative viability (NCI-H1666; first compound 0.006325 µM) of 0.276, a relative viability (NCI-H1666; first compound 0.02 µM) of 0.168 and a relative viability (NCI-H2009; first compound 0.0002 µM) of 1.13. The relative viability (NCI-H2009; first compound 0.000632 µM) was 1.16, the relative viability (NCI-H2009; first compound 0.002 µM) was 0.988 and the relative viability (NCI-H2009; first compound 0.006325 µM) was 0.765. The relative viability (NCI-H2009; first compound 0.02 µM) was 0.157, the relative viability (NCI-H2170; first compound 0.0002 µM) was 0.83 and the relative viability (NCI-H2170; first compound 0.000632 µM) was 0.632. It also gave a relative viability (NCI-H2170; first compound 0.002 µM) of 0.451, a relative viability (NCI-H2170; first compound 0.006325 µM) of 0.228 and a relative viability (NCI-H2170; first compound 0.02 µM) of 0.175. The relative viability (NCI-H3122; first compound 0.0002 µM) was 0.719, the relative viability (NCI-H3122; first compound 0.000632 µM) was 0.753 and the relative viability (NCI-H3122; first compound 0.002 µM) was 0.764. The relative viability (NCI-H3122; first compound 0.006325 µM) was 0.318, the relative viability (NCI-H3122; first compound 0.02 µM) was 0.186 and the relative viability (NCI-H441; first compound 0.0002 µM) was 0.579. The relative viability (NCI-H441; first compound 0.000632 µM) was 0.677, the relative viability (NCI-H441; first compound 0.002 µM) was 0.323 and the relative viability (NCI-H441; first compound 0.006325 µM) was 0.205. The relative viability (NCI-H441; first compound 0.02 µM) was 0.172, the relative viability (NCI-H460; first compound 0.0002 µM) was 0.303 and the relative viability (NCI-H460; first compound 0.000632 µM) was 0.185. It also gave a relative viability (NCI-H460; first compound 0.002 µM) of 0.016, a relative viability (NCI-H460; first compound 0.006325 µM) of 0.0118 and a relative viability (NCI-H460; first compound 0.02 µM) of 0.0069. For the same molecule, the relative viability (NCI-H661; first compound 0.0002 µM) was 0.468, the relative viability (NCI-H661; first compound 0.000632 µM) was 0.582 and the relative viability (NCI-H661; first compound 0.002 µM) was 0.411. For the same molecule, the relative viability (NCI-H661; first compound 0.006325 µM) was 0.344, the relative viability (NCI-H661; first compound 0.02 µM) was 0.176 and the relative viability (NCI-H727; first compound 0.0002 µM) was 0.583. For the same molecule, the relative viability (NCI-H727; first compound 0.000632 µM) was 0.639, the relative viability (NCI-H727; first compound 0.002 µM) was 0.369 and the relative viability (NCI-H727; first compound 0.006325 µM) was 0.298. For the same molecule, the relative viability (NCI-H727; first compound 0.02 µM) was 0.23, the relative viability (PC-14; first compound 0.0002 µM) was 0.895 and the relative viability (PC-14; first compound 0.000632 µM) was 0.998. For the same molecule, the relative viability (PC-14; first compound 0.002 µM) was 0.354, the relative viability (PC-14; first compound 0.006325 µM) was 0.11 and the relative viability (PC-14; first compound 0.02 µM) was 0.0576.
